According to patent EP0052361A1, “Novel 16-membered macrolide compounds” (SANRAKU-OCEAN CO., LTD., priority 1980, dated 1982):
In brackets after ≈: the same amount, converted by molar mass.

Experiments:
Assay in all cases: MIC by tube dilution method in brain heart infusion broth
Assay type in all cases: cell-based
[1] = test system: Bacillus subtilis NRRL B-558; details: Bacillus subtilis, NRRLB558, pH 7.5, read-out: Antimicrobial activity (MIC) Bacillus subtilis NRRL B558
Protocol: (§1) The minimum growth inhibitory concentrations (MIC) of the compounds (I) against various microorganisms were measured by a tube dilution method in a brain heart infusion broth (pH 7.5) as a medium.

[2] = test system: Klebsiella pneumoniae PCI602; details: Klebsiella pneumoniae, PCI602, pH 7.5, read-out: Antimicrobial activity (MIC) Klebsiella pneumonae PCI602
Protocol: as §1

[3] = test system: Staphylococcus aureus 209P; details: Staphylococcus aureus, 209P, pH 7.5, read-out: Antimicrobial activity (MIC) Staphylococcus aureus 209P
Protocol: as §1

[4] = test system: Staphylococcus aureus MS9861; details: MS9861, pH 7.5, read-out: Antimicrobial activity (MIC) Staphylococcus aureus MS9861
Protocol: as §1

## CCC1OC(=O)CC(O)C(C)C(OC2OC(C)C(OC3CC(C)(OC(C)=O)C(OC(=O)Cc4cccnc4)C(C)O3)C(N(C)C)C2O)C(CC=O)CC(C)C(=O)C=CC(C)=CC1C (stereo not drawn)
[1]
  MIC: < 0.2 µg/mL
[2]
  MIC: 3.1 µg/mL (≈ 3.49 µM)
[3]
  MIC: 0.4 µg/mL (≈ 0.451 µM)
[4]
  MIC: 1.6 µg/mL (≈ 1.8 µM)

## CCC1OC(=O)CC(O)C(C)C(OC2OC(C)C(OC3CC(C)(O)C(OC(=O)C(O)c4ccccc4)C(C)O3)C(N(C)C)C2O)C(CC=O)CC(C)C(=O)C=CC(C)=CC1C (stereo not drawn)
[1]
  MIC: 1.6 µg/mL (≈ 1.86 µM)
[2]
  MIC: 3.1 µg/mL (≈ 3.6 µM)
[3]
  MIC: < 0.2 µg/mL
[4]
  MIC: 1.6 µg/mL (≈ 1.86 µM)

## CCC1OC(=O)CC(O)C(C)C(OC2OC(C)C(OC3CC(C)(O)C(OC(=O)C(OC(C)=O)c4ccccc4)C(C)O3)C(N(C)C)C2O)C(CC=O)CC(C)C(=O)/C=C/C(C)=C/C1C (stereo not drawn)
[1]
  MIC: 0.8 µg/mL (≈ 0.887 µM)
[2]
  MIC: 25 µg/mL (≈ 27.7 µM)
[3]
  MIC: 0.8 µg/mL (≈ 0.887 µM)
[4]
  MIC: 3.1 µg/mL (≈ 3.44 µM)

## CCC1OC(=O)CC(O)C(C)C(OC2OC(C)C(OC3CC(C)(O)C(OC(=O)C4CCCCC4)C(C)O3)C(N(C)C)C2O)C(CC=O)CC(C)C(=O)/C=C/C(C)=C/C1C (stereo not drawn)
[1]
  MIC: 0.2 µg/mL (≈ 0.239 µM)
[2]
  MIC: 12.5 µg/mL (≈ 15 µM)
[3]
  MIC: 0.8 µg/mL (≈ 0.957 µM)
[4]
  MIC: 3.1 µg/mL (≈ 3.71 µM)

## CCC1OC(=O)CC(O)C(C)C(OC2OC(C)C(OC3CC(C)(OC(C)=O)C(OC(=O)C4CCCCC4)C(C)O3)C(N(C)C)C2O)C(CC=O)CC(C)C(=O)/C=C/C(C)=C/C1C (stereo not drawn)
[1]
  MIC: 0.4 µg/mL (≈ 0.456 µM)
[2]
  MIC: > 100 µg/mL
[3]
  MIC: 1.6 µg/mL (≈ 1.82 µM)
[4]
  MIC: 6.3 µg/mL (≈ 7.17 µM)

## CCC1OC(=O)CC(O)C(C)C(OC2OC(C)C(OC3CC(C)(O)C(OC(=O)Nc4ccccc4)C(C)O3)C(N(C)C)C2O)C(CC=O)CC(C)C(=O)/C=C/C(C)=C/C1C (stereo not drawn)
[1]
  MIC: 0.8 µg/mL (≈ 0.947 µM)
[2]
  MIC: 6.3 µg/mL (≈ 7.46 µM)
[3]
  MIC: 0.8 µg/mL (≈ 0.947 µM)
[4]
  MIC: 3.1 µg/mL (≈ 3.67 µM)

## CCC1OC(=O)CC(O)C(C)C(OC2OC(C)C(OC3CC(C)(O)C(OS(=O)(=O)c4ccc(C)cc4)C(C)O3)C(N(C)C)C2O)C(CC=O)CC(C)C(=O)/C=C/C(C)=C/C1C (stereo not drawn)
[1]
  MIC: 0.4 µg/mL (≈ 0.454 µM)
[2]
  MIC: 3.1 µg/mL (≈ 3.52 µM)
[3]
  MIC: < 0.2 µg/mL
[4]
  MIC: 6.3 µg/mL (≈ 7.16 µM)

## CCC1OC(=O)CC(O)C(C)C(OC2OC(C)C(OC3CC(C)(O)C(OC(=O)CSc4ccncc4)C(C)O3)C(N(C)C)C2O)C(CC=O)CC(C)C(=O)C=CC(C)=CC1C (stereo not drawn)
[1]
  MIC: < 0.2 µg/mL
[2]
  MIC: 3.1 µg/mL (≈ 3.53 µM)
[3]
  MIC: < 0.2 µg/mL
[4]
  MIC: 1.6 µg/mL (≈ 1.82 µM)

## CCC1OC(=O)CC(O)C(C)C(OC2OC(C)C(OC3CC(C)(O)C(OC(=O)Cc4cccs4)C(C)O3)C(N(C)C)C2O)C(CC=O)CC(C)C(=O)C=CC(C)=CC1C (stereo not drawn)
[1]
  MIC: 0.4 µg/mL (≈ 0.471 µM)
[2]
  MIC: 3.1 µg/mL (≈ 3.65 µM)
[3]
  MIC: 0.2 µg/mL (≈ 0.235 µM)
[4]
  MIC: 1.6 µg/mL (≈ 1.88 µM)
